# Biological target: T1, SzeaGSTd1 (Sitophilus zeamais, UniProt A0A8F0D7V2)
# T1 sequence (A0A8F0D7V2 22-247): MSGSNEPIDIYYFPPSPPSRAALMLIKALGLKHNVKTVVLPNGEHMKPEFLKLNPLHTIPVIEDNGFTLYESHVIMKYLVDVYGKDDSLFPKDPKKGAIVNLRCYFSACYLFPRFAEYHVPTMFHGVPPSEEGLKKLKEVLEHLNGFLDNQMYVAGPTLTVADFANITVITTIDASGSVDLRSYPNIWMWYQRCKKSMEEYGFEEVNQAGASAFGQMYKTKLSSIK
# Assay: GSH conjugation, absorbance at […] nm, Michaelis-Menten
# Assay type: biochemical
# Settings: 1 mM GSH, 100 mM phosphate pH 7.2
structure (smiles),measurement,value
"O=[N+]([O-])c1ccc(Cl)c([N+](=O)[O-])c1 [CDNB, 1-chloro-2,4-dinitrobenzene]",Km,420 ± 40 µM
